Measurements: patent US20220323532A1, “COMPOSITIONS COMPRISING PLANT-DERIVED EXOSOME-LIKE NANOVESICLES OR EXOSOMES AND METHODS OF USE THEREOF” (priority 2021, published 2022)
Where two headings read alike, the source gives them in different places.

Key:
skin of human subjects [1] = settings: repeat insult patch test; positive control
Excerpt: To determine the irritation and sensitization (contact allergy) potential of a test material (high growth serum comprising ashwagandha exosomes/ELNs 1×10^9 or 1×10^10 after repeated application to the skin of human subjects. […]
This procedure was repeated until a series of nine (9) consecutive, 24-hour exposures had been made three (3) times a week for three (3) consecutive weeks. Prior to each reapplication, the test sites evaluated by trained laboratory personnel. […] Test sites were evaluated by trained laboratory personnel 48 and 96 hours after application. In the event of an adverse reaction, the area of erythema and edema were measured. […] Subjects were instructed to report any delayed reactions that might occur after the final reading. […]

skin of human subjects [2] = assay: Primary skin irritation evaluation, single 48 hour patch; format: in vivo; settings: single application, patch 48 hours; 55 subjects; positive control
Procedure: Patches remain in place for 48 hours. […] Trained skin grading laboratory personnel removed the patch and evaluated the test sites.
Whenever feasible, the same individual does the scoring of all the subjects throughout the study and is blinded to the treatment assignments and any previous scores. • 0 no reaction (negative) • 1 erythema throughout at least ¾ of patch area • 2 erythema and induration throughout at least ¾ of patch area • 3 erythema, induration and vesicles • 4 erythema, induration and bullae • D Site discontinued • Dc Subject discontinued • DcI Subject discontinued per Investigator

## CCCCCCCCCCCCOS(=O)(=O)[O-].[Na+] [2.0% Sodium Lauryl Sulfate Solution, Sodium Lauryl Sulfate]
Skin of human subjects [1]
  subjects with a Grade 1 reaction: 6 subjects
Skin of human subjects [2]
  subjects with a Grade 1 reaction: 6 subjects
